Laboratory results published in ChEMBL document CHEMBL3507680, “University of Dundee, Gates Library screen for HepG2 cell viability”.

Assay: Human HepG2 cell viability assay in 384 well format
Type: toxicity, cell-based
Design: dose 125 nL, time 70.5 hour; cytotoxicity at 70.5 h: concentration not given beside the values
Conditions: HepG2 cells, read-out: Inhibition

Structure (SMILES)	cytotoxicity at 70.5 h [%]
O=C1CO[C@H]2CN(C3CCOCC3)C[C@H]2N1Cc1ccncc1	0.0501
CNC(=O)C(C)(C)N1CCC[C@H]1C(=O)NCCN1CCOCC1	-6.76
O=C1C[C@@H]2CCN(Cc3ccccc3)C[C@@H]2CCN1C1CCCCC1	6.87
COCCOc1ccc(-c2noc([C@@H]3CCCN3C3CCC3)n2)cn1	-3.43
COCCOc1ccnc(-c2noc([C@@H]3CCCN3CC3CC3)n2)c1	-9.26
COCCOc1ccnc(-c2noc([C@@H]3CCCN3C3CCC3)n2)c1	-5.26
CC(C)C[C@@H]1N[C@H](C(=O)NC(C)C)Cc2c[nH]c3cccc1c23	-1.24
CCN(CC)C1(Cc2cc(-c3cccc(O)c3)on2)COC1	-8.06
N#Cc1ccc(CN2C[C@@H]3OCC(=O)N(CC(N)=O)[C@@H]3C2)cc1	-3.35
CC(C)(C)c1coc([C@@H]2COCCN2Cc2csnn2)n1	-1.66
COCC(=O)N[C@H]1C[C@@H](Cc2cc(CN3CCOCC3)on2)C1(C)C	11.2
CC[C@H]1CN(S(C)(=O)=O)CC[C@H]1CC(=O)NCCOC	9.53
Cn1ccnc1CN1C(=O)CO[C@H]2CN(Cc3ccccc3O)C[C@H]21	-1.59
CC(=O)N1CCC(N2CCOC[C@H]2c2nc(-c3ccc(Cl)s3)c[nH]2)CC1	-2.53
COCCN1C[C@H]2CN(C(=O)C3CC3)CCN2C1=O	3.48
Cn1cc(CN2CCOC[C@H]2c2nc(C(C)(C)C)co2)c2ccccc21	-2.71
Cc1nn(CCC#N)c(C)c1[C@@H]1C=C[C@@H](NCc2cccc(Cl)c2)C1	-4.45
O=C(N[C@@H]1CNCCC[C@H]1O)c1ccc(OCc2ccccc2)cc1	-2.25
COc1ccc(-c2noc([C@@H]3C[C@H](NC(=O)NC(C)C)CN3C)n2)cc1	-0.383
CCS(=O)(=O)c1ccc2oc([C@H]3CCN(Cc4ccccc4)C3)nc2c1	2.59
O=C(C1CC1)N1CC[C@H](c2nnc(Cc3c[nH]c4ccccc34)o2)C1	-1.09

Structure (SMILES)	cytotoxicity at 70.5 h [%]
CC(=O)N1CCC(N2CCN3C(=O)N(c4ccccc4)C[C@H]3C2)CC1	3.66
c1ccc(O[C@H]2COCCN(CC3CC3)C2)cc1	-1.48
O=C(NC[C@H]1OC[C@@H](NCc2ccccc2F)[C@@H]1O)c1ccc(F)cc1	-3.67
O[C@H]1CC[C@@H](Cc2cc(-c3ccccc3)on2)O[C@@H]1CNCC1CC1	-5.25
Cc1ccc(CNC[C@H]2Cn3cc(-c4ccccc4)nc3CO2)cc1	-4.13
Cc1cccnc1CNC[C@H]1Cn2cc(-c3ccccc3)nc2CO1	-6.83
COc1ccc(CN2CC[C@H](c3nc4cccc(C(N)=O)c4[nH]3)C2)cc1	3.39
CCCc1c(C(=O)NC2CCCC2)nnn1-c1ccc(OC)cc1	16.8
COc1ccc(-c2ccnc3c2C(=O)CCC3)cc1	25.7
CC(C)c1cc(C(F)(F)F)n2nc(CCC(=O)O)nc2n1	10.3
CCn1cc(CN(C)S(=O)(=O)c2cnn(CC)c2C)c(C)n1	5.14
COc1ccc(Oc2cncc(C3CCCN3C(C)=O)n2)cc1 (stereo unspecified)	31.7
Cc1cc2cc(C(=O)N[C@@H]3CC[C@@H](N4CCOCC4)[C@@H]3O)ccc2o1	24.8
CNC(=O)C1(N2CCC[C@H]2C(=O)NC2CCCCC2)CCOCC1	5.4
CCNC(=O)[C@@H]1CCCN1[C@@H](C(=O)NC)C1CC1	-2.16
CCCNC(=O)[C@@H]1CCCN1[C@@H](C(=O)NC)C1CC1	-11.8
CNC(=O)C1(N2CCC[C@H]2C(=O)NC2CCOCC2)CCOCC1	-6.78
CC(C)NC[C@@]1(COc2ccccc2)C[C@@H](O)[C@@H](O)C1	-5.31
CNC(=O)C(C)(C)N1CCC[C@H]1C(=O)NCC(C)C	-6.89
CN1CCCCc2c1nc1c(c2N)CCC1.O=C(O)c1cc([N+](=O)[O-])ccc1Cl	-11.7
